Patent US20250041379A1, “METHODS AND COMPOSITIONS FOR THE TREATMENT OF CANCER” (Vigeo Therapeutics, Inc., priority 2021, published 2025)
No end group written: not given here.

Key:
Type in all cases: in vivo, human
[1] = test system: tumor microenvironment (TME) in pancreatic cancer; test: Modulation of the TME in paired tumor biopsies by multiplex ion beam image analysis, pancreatic cancer; details: 8 pairs of pancreatic cancer biopsies from Parts 1 & 2
Description: FIG. 5A and FIG. 5B are charts showing that VT1021 modulates the TME in pancreatic cancer.
In the “expansion stage” of the VT1021-01 Study, subjects diagnosed with recurrent GBM, pancreatic cancer, ovarian cancer and other solid tumors were enrolled. They were treated with VT1021 at 11.8 mg/kg, twice weekly by IV infusion. The blood samples were collected from the clinical study at pre-treatment, 0, 2, 4, 6 hours post treatment to measure the levels of VT1021 (FIG. 2). The tumor biopsy samples prior to treatment and during treatment were collected from the clinical study to measure expression levels of biomarkers including CD36 and CD47, as well as cell surface markers for immune cell populations in the TME by immunohistochemistry assays (FIG. 3, FIG. 4, FIG. 5). The correlation between days on study and tumor shrinkage versus expression profile of CD36 and CD47 was analyzed (FIG. 4). The general expression profile of CD36 and CD47 has been assessed by IHC on Tumor Tissue Microarrays (TMAs), which contain biopsy samples collected from pancreatic cancer patients. TMAs were purchased from commercial sources, not related to the VT1021-01 clinical study.
FIG. 5A and FIG. 5 B are charts showing that VT1021 modulates the TME in pancreatic cancer. Modulation of the TME by VT1021 in paired biopsies from subjects with pancreatic cancer was assessed by multiplex ion beam image analysis. Representative images from 1 of 3 regions of interest in tumor biopsies from a subject obtained pre-treatment (pre) and on-study (on). […] TSP-1+increased >2 fold in on-study biopsies compared to pre-treatment, both the CTL/Treg and M1/M2 macrophage ratios increased and the percent of M1 macrophages increased >3 fold in the TME after treatment with VT1021.

[2] = VT1021 concentration in plasma (pharmacokinetic profile) in the clinical study; details: phase I/II study
From the text: FIG. 2 is a chart showing the pharmacokinetic profile of VT1021 concentration in the plasma of human patients with glioblastoma (red), pancreatic cancer (green), ovarian cancer (blue), other (purple) or not reported (red) over time following the initial administration at time 0. “Others” and “Not reported” refer to subjects enrolled in the clinical trial with solid tumor indications other than GBM, Panc, and Ovarian cancers.
FIG. 7 is a chart showing the pharmacokinetic profile of VT1021 concentration in the plasma of male (solid line) and female (dotted line) glioblastoma patients over time following the initial administration at time 0.
In the “expansion stage” of the VT1021-01 Study, subjects diagnosed with recurrent GBM, pancreatic cancer, ovarian cancer and other solid tumors were enrolled. […] The correlation between days on study and tumor shrinkage versus expression profile of CD36 and CD47 was analyzed (FIG. 4). The general expression profile of CD36 and CD47 has been assessed by IHC on Tumor Tissue Microarrays (TMAs), which contain biopsy samples collected from pancreatic cancer patients. […]
The blood samples were collected from GBM subjects in the expansion phase, who were treated by VT1021 at 11.8 mg/kg, twice weekly, by IV infusion. VT1021 levels were measured and analyzed among male and female subjects (FIG. 7). […]

[3] = test system: recurrent GBM (rGBM); test: Phase I/II clinical study: clinical response and duration of treatment in recurrent GBM
Description: VT1021 was evaluated in a recently completed phase I/II open-label, multicenter, dose escalation (Part 1) and expansion (Part 2) clinical study in advanced, refractory, solid tumors including recurrent GBM (rGBM) (NCT03364400). Thirty-two subjects with rGBM were dosed in Part 2, 22 of which were considered evaluable as having completed ≥1 cycle of VT1021 treatment and tumor imaging during cycle 2. […] The blood samples were collected from GBM subjects in the expansion phase, who were treated by VT1021 at 11.8 mg/kg, twice weekly, by IV infusion. VT1021 levels were measured and analyzed among male and female subjects (FIG. 7). Days on study have been collected from the same group of subjects (FIG. 8). […] CD36 and CD47 levels have been measured by immunohistochemistry assays in the pre-treatment tumor biopsy samples of the GBM subjects (FIG. 9, FIG. 10). Levels of Tsp-1 were measured by ELISA for circulating Tsp-1 levels in the collected blood samples, and by immunohistochemistry for the level of Tsp-1 accumulated in the tumor biopsy samples (FIG. 10). The infiltration of immune and inflammatory cells, specifically, MDSCs, T cells and macrophages, were determined by immunohistochemical analysis of the levels of cell surface markers in the tumor biopsy samples of subjects (FIG. 11). […] Among 22 evaluable rGBM subjects, 3 had complete response (CR), 1 had partial response (PR), and 7 had stable disease (SD) with an average study duration of over 203 days. The overall disease control rate (DCR) was 50%. […] Of the 11 CR/PR/SDs, 6 were dual high (55%). […] Complete response scan images and lesion shrinkage for 1 of 3 subjects who achieved CR.

[4] = test system: TSP-1; test: TSP-1 protein by ELISA in peripheral blood mononuclear cells of rGBM subjects; details: all evaluable subjects with rGBM
From the text: (§1) FIG. 10 is a chart showing that VT1021 induces TSP-1 in the circulation and the TME. (A) Bar graph of Tsp-1 protein levels measured by ELISA in circulating MDSCs collected prior to (baseline) and after (induction) treatment with VT1021 from patients who experienced complete or partial response, stable disease, or progressive disease; (B) H&E and immunohistochemical analysis of patient tumor tissue prior to onset (pre) or during treatment with VT1021; (C) Immunohistochemical analysis depicting representative images of high levels of CD36 and CD47.
(§2) The blood samples were collected from GBM subjects in the expansion phase, who were treated by VT1021 at 11.8 mg/kg, twice weekly, by IV infusion. VT1021 levels were measured and analyzed among male and female subjects (FIG. 7). […] CD36 and CD47 levels have been measured by immunohistochemistry assays in the pre-treatment tumor biopsy samples of the GBM subjects (FIG. 9, FIG. 10). Levels of Tsp-1 were measured by ELISA for circulating Tsp-1 levels in the collected blood samples, and by immunohistochemistry for the level of Tsp-1 accumulated in the tumor biopsy samples (FIG. 10). The infiltration of immune and inflammatory cells, specifically, MDSCs, T cells and macrophages, were determined by immunohistochemical analysis of the levels of cell surface markers in the tumor biopsy samples of subjects (FIG. 11).

[5] = test system: TSP-1; test: Immunohistochemistry and pathological examination of pre-treatment and on-study rGBM tumor biopsy; details: subject with rGBM who achieved CR
From the text: as §1, §2

[6] = among 22 evaluable rGBM subjects
[7] = among the 9 CD36/CD47 dual-high rGBM subjects
[8] = the 9 CD36/CD47 dual-high rGBM subjects

For “cyclic DWLPK (also: cyclic, mode of cyclisation not given here) [VT1021, 5-amino acid cyclic peptide from prosaposin; Tsp-1-inducing agent]”, the “CTL/Treg ratio in the TME after treatment” value [1] was “increased”, the “M1/M2 macrophage ratio in the TME after treatment” value [1] was “increased” and the “TSP-1+ mean intensity, increase on-study vs pre-treatment” value [1] was greater than 2 fold. The “percent of M1 macrophages, increase in the TME after treatment” value [1] was greater than 3 fold, the pharmacokinetic profile ([2]; solid tumors including pancreatic cancer) was “predictable” and the pharmacokinetic profile ([2]; solid tumors including rGBM) was “predictable”. The “treatment until lesion no longer measurable” value ([3]; 1 CR rGBM subject, MRI lesion measurement) was 9 cycles, the time on study ([3]; 1 CR rGBM subject, still on-going) was 476 days and the “overall disease control rate (DCR)” value ([3]; 22 evaluable rGBM subjects) was 50%. For the same substance, the “subjects with complete response (CR)” value [3, 6] was 3, the “subjects with partial response (PR)” value [3, 6] was 1 and the “subjects achieving CR” value [3, 7] was 3. The “subjects achieving SD” value [3, 7] was 3 subjects, the average study duration ([3]; rGBM subjects with CR, PR or SD) was “over 203 days” and the DCR [3, 8] was 67%. The overall response rate [3, 8] was 33.3%, the “TSP-1 protein in peripheral blood mononuclear cells (PBMCs)” value [4] was “induced” and the “TSP-1 in the on-study biopsy” value [5] was “TSP-1 induction”. The “tumor cells by pathological examination of the on-study biopsy” value [5] was “No tumor cells were detected”.
